Data: patent US20230212122A1, “MITOCHONDRIAL TARGETING COMPOUNDS FOR THE TREATMENT OF ASSOCIATED DISEASES” (The Regents of the University of Michigan, priority 2020, published 2023)

How the values were obtained:
BxPc3 cells = experiment: MTT assay, cancer cell growth inhibition (BxPC-3); assay type: cell-based; settings: Homo sapiens, BXPC-3, 168 h, 7 days of treatment
Description: (§1) Measurement of cancer cell growth inhibition of the compounds of invention Cytotoxicity of the compounds was assessed by MTT assay. In brief, MIA PaCa-2 cells or BxPc3 cells were seeded in 96-well microtitre plates at density of 200 cells/well. After overnight attachment, cells were treated with compounds at indicated concentration. After 7 days of treatment, MTT solution (3 mg/ml, 20 μl) was added to each well and cells were incubated for 3 h at 37° C. After incubation, media from each well was removed and the dark blue formazan crystals formed by live cells were dissolved in DMSO ([…] per well). The absorbance intensity was measured at 570 nm on a microplate reader (Molecular Devices, Sunnyvale, Calif., USA). The half maximal inhibitory concentration (IC50) value were calculated using 4 or 6 dots curve plotted with Cumulative Gaussian equation or Log(inhibitor) vs. response equation in GraphPad Prism.

MIA PaCa-2 cells = experiment: MTT assay, cancer cell growth inhibition (MIA PaCa-2); assay type: cell-based; settings: Homo sapiens, MIA PaCa-2, 168 h, 7 days of treatment, read-out: MiaPaCa IC50
Description: as §1

Compound `CCOC(=O)[C@@H]1C[C@H](O)CN(S(=O)(=O)c2ccc(S(=O)(=O)N(CC)CC)cc2)C1` (relative stereo) [DX3-14B-P1, (cis)-ethyl 1-((4-(N,N-diethylsulfamoyl)phenyl)sulfonyl)-5-hydroxypiperidine-3-carboxylate] has an IC50 (BxPc3 cells) of 3.29 ± 0.06 µM and an IC50 (MIA PaCa-2 cells) of 1.35 ± 0.59 µM.
Work on `CCOC(=O)[C@H]1CCCN(S(=O)(=O)c2ccc(S(=O)(=O)N(CC)CC)cc2)C1` [DX2-202, ethyl (S)-1-((4-(N,N-diethylsulfamoyl)phenyl)sulfonyl)piperidine-3-carboxylate] yielded an IC50 (BxPc3 cells) of 6.8 ± 2.1 µM and an IC50 (MIA PaCa-2 cells) of 6.08 ± 0.76 µM.
`CCOC(=O)[C@@H]1CCCN(S(=N)(=O)c2ccc(S(=O)(=O)N(CC)CC)cc2)C1` (stereo partly drawn) [DX2-225, ethyl (3R)-1-(4-(N,N-diethylsulfamoyl)phenylsulfonimidoyl)piperidine-3-carboxylate] gave an IC50 (BxPc3 cells) of 13.3 ± 4.58 µM and an IC50 (MIA PaCa-2 cells) of 12.1 ± 3.85 µM.
`CCOC(=O)[C@@H]1CCCN(S(=O)(=O)c2ccc(Oc3ccc(S(=O)(=O)N(CC)CC)cc3)cc2)C1` [DX2-230, ethyl (R)-1-((4-(4-(N,N-diethylsulfamoyl)phenoxy)phenyl)sulfonyl)piperidine-3-carboxylate] gave an IC50 (BxPc3 cells) of 3.88 ± 0.57 µM and an IC50 (MIA PaCa-2 cells) of 3.92 ± 0.89 µM.
`CCN(CC)S(=O)(=O)c1ccc(S(=O)(=O)N2CCC[C@@H](C(=O)NC3COC3)C2)cc1` [DX2-242, (R)-1-((4-(N,N-diethylsulfamoyl)phenyl)sulfonyl)-N-(oxetan-3-yl)piperidine-3-carboxamide] showed an IC50 (BxPc3 cells) of 13.8 ± 3.58 µM and an IC50 (MIA PaCa-2 cells) of 2.34 ± 1.01 µM.
`CCN(CC)S(=O)(=O)c1ccc(S(=O)(=O)N2CCC[C@@H](C(=O)OC3CC3)C2)cc1` [DX2-263, cyclopropyl (R)-1-((4-(N,N-diethylsulfamoyl)phenyl)sulfonyl)piperidine-3-carboxylate] gave an IC50 (BxPc3 cells) of 0.35 ± 0.06 µM and an IC50 (MIA PaCa-2 cells) of 0.3 ± 0.13 µM.
`CCOC(=O)[C@@H]1CCCN(S(=O)(=O)c2ccc(S(=O)(=O)N3CCCCC3)cc2)C1` [DX2-265, ethyl (R)-1-((4-(piperidin-1-ylsulfonyl)phenyl)sulfonyl)piperidine-3-carboxylate] showed an IC50 (BxPc3 cells) of 3.29 ± 0.74 µM and an IC50 (MIA PaCa-2 cells) of 2.87 ± 0.49 µM.
`CCOC(=O)[C@@H]1CCCN(S(=O)(=O)c2ccc(S(=O)(=O)N(CC)CC)c(F)c2)C1` [DX2-275, ethyl (R)-1-((4-(N,N-diethylsulfamoyl)-3-fluorophenyl)sulfonyl)piperidine-3-carboxylate] was tested, and the IC50 (BxPc3 cells) was 1.61 ± 0.37 µM and the IC50 (MIA PaCa-2 cells) was 0.93 ± 0.36 µM.
`CCOC(=O)[C@@H]1CCCN(S(=O)(=O)c2ccc(S(=O)(=O)N(CC)CC)cn2)C1` [DX2-293, ethyl (R)-1-((5-(N,N-diethylsulfamoyl)pyridin-2-yl)sulfonyl)piperidine-3-carboxylate] gave an IC50 (BxPc3 cells) of 1.37 ± 0.52 µM and an IC50 (MIA PaCa-2 cells) of 1.3 ± 0.45 µM.
Compound `CCOC(=O)c1cccc(S(=O)(=O)c2ccc(S(=O)(=O)N(CC)CC)cc2)c1` [DX3-3, ethyl 3-((4-(N,N-diethylsulfamoyl)phenyl)sulfonyl)benzoate] has an IC50 (BxPc3 cells) of 2.29 ± 0.7 µM and an IC50 (MIA PaCa-2 cells) of 4.12 ± 2.44 µM.
For `CCN(CC)S(=O)(=O)c1ccc(S(=O)(=O)N2CCCC(S(=O)(=O)N(C)C)C2)cc1` (stereo not drawn) [DX3-39, 1-((4-(N,N-diethylsulfamoyl)phenyl)sulfonyl)-N,N-dimethylpiperidine-3-sulfonamide], the IC50 (BxPc3 cells) was 6.3 ± 1.44 µM and the IC50 (MIA PaCa-2 cells) was 5.1 ± 1.29 µM.
Compound `CCOC(=O)C1CN(S(=O)(=O)c2ccc(S(=O)(=O)N(CC)CC)cc2)CCN1` (stereo not drawn) [DX3-44B, ethyl 4-((4-(N,N-diethylsulfamoyl)phenyl)sulfonyl)piperazine-2-carboxylate] has an IC50 (BxPc3 cells) of 6.77 ± 0.52 µM and an IC50 (MIA PaCa-2 cells) of 4.7 ± 1.92 µM.
`CCOC(=O)C1(F)CCCN(S(=O)(=O)c2ccc(S(=O)(=O)N(CC)CC)cc2)C1` (stereo not drawn) [DX3-47, ethyl 1-((4-(N,N-diethylsulfamoyl)phenyl)sulfonyl)-3-fluoropiperidine-3-carboxylate] gave an IC50 (BxPc3 cells) of 4.92 ± 1.94 µM and an IC50 (MIA PaCa-2 cells) of 2.94 ± 0.32 µM.
For `CCN(CC)S(=O)(=O)c1ccc(S(=O)(=O)N2CCCC(F)C2)cc1` (stereo not drawn) [DX3-49B, N,N-diethyl-4-((3-fluoropiperidin-1-yl)sulfonyl)benzenesulfonamide], the IC50 (BxPc3 cells) was 8.27 ± 2.52 µM and the IC50 (MIA PaCa-2 cells) was 3.65 ± 1.68 µM.
Compound `CCOC(=O)[C@@H]1CCCN(S(=O)(=O)c2ccc(C(=O)N(CC)CC)cc2)C1` [DX3-78B, ethyl (R)-1-((4-(diethylcarbamoyl)phenyl)sulfonyl)piperidine-3-carboxylate] has an IC50 (BxPc3 cells) of 0.62 µM and an IC50 (MIA PaCa-2 cells) of 0.28 µM.
Work on `CCOC(=O)[C@@H]1CCCN(S(=O)(=O)c2ccc(S(=N)(=O)N(CC)CC)cc2)C1` (stereo partly drawn) [DX3-90, ethyl (3R)-1-((4-(N,N-diethylsulfamidimidoyl)phenyl)sulfonyl)piperidine-3-carboxylate] yielded an IC50 (BxPc3 cells) of 3.59 ± 1.39 µM and an IC50 (MIA PaCa-2 cells) of 2.55 ± 0.15 µM.
In the case of `CCN(CC)S(=O)(=O)c1ccc(S(=O)(=O)N2CCC[C@@H](C(=O)N[C@@H]3CCOC3)C2)cc1` [DX3-107B, (R)-1-((4-(N,N-diethylsulfamoyl)phenyl)sulfonyl)-N-((R)-tetrahydrofuran-3-yl)piperidine-3-carboxamide], the IC50 (BxPc3 cells) is reported as 2.27 ± 0.61 µM and the IC50 (MIA PaCa-2 cells) is reported as 0.75 ± 0.08 µM.
`CCOC(=O)C12CC(CN(S(=O)(=O)c3ccc(S(=O)(=O)N(CC)CC)cc3)C1)C2` [DX3-115, ethyl 3-((4-(N,N-diethylsulfamoyl)phenyl)sulfonyl)-3-azabicyclo[3.1.1]heptane-1-carboxylate] showed an IC50 (BxPc3 cells) of 1.23 ± 0.79 µM and an IC50 (MIA PaCa-2 cells) of 1.04 ± 0.45 µM.
In the case of `CCN(CC)S(=O)(=O)c1ccc(S(=O)(=O)N2CCC[C@@H](C(=O)N[C@H]3CCN(C(=O)OC(C)(C)C)C3)C2)cc1` [DX3-119, tert-butyl (S)-3-((R)-1-((4-(N,N-diethylsulfamoyl)phenyl)sulfonyl)piperidine-3-carboxamido)pyrrolidine-1-carboxylate], the IC50 (BxPc3 cells) is reported as 0.33 ± 0.12 µM and the IC50 (MIA PaCa-2 cells) is reported as 0.13 ± 0.04 µM.
Compound `CCN(CC)S(=O)(=O)c1ccc(S(=O)(=O)N2CCC[C@@H](C(=O)N3CC4(CN(C(=O)OC(C)(C)C)C4)C3)C2)cc1` [DX3-120, tert-butyl (R)-6-(1-((4-(N,N-diethylsulfamoyl)phenyl)sulfonyl)piperidine-3-carbonyl)-2,6-diazaspiro[3.3]heptane-2-carboxylate] has an IC50 (BxPc3 cells) of 1.1 ± 0.16 µM and an IC50 (MIA PaCa-2 cells) of 0.43 ± 0.18 µM.
For `CCN(CC)S(=O)(=O)c1ccc(S(=O)(=O)N2CCC[C@@H](C(=O)N3CCOCC3)C2)cc1` [DX3-121B, (R)-N,N-diethyl-4-((3-(morpholine-4-carbonyl)piperidin-1-yl)sulfonyl)benzenesulfonamide], the IC50 (MIA PaCa-2 cells) was 0.35 ± 0.02 µM.
Work on `CCN(CC)S(=O)(=O)c1ccc(S(=O)(=O)N2CCC[C@@H](c3nc(C)no3)C2)cc1` [DX3-122B, (R)-N,N-diethyl-4-((3-(3-methyl-1,2,4-oxadiazol-5-yl)piperidin-1-yl)sulfonyl)benzenesulfonamide] yielded an IC50 (BxPc3 cells) of 2.86 ± 3.14 µM and an IC50 (MIA PaCa-2 cells) of 4.12 ± 1.16 µM.
`CCN(CC)S(=O)(=O)c1ccc(S(=O)(=O)N2CCC[C@@H](C(=O)N[C@@H]3CCN(C(=O)c4ccccc4)C3)C2)cc1` [DX3-125, (R)-N-((R)-1-benzoylpyrrolidin-3-yl)-1-((4-(N,N-diethylsulfamoyl)phenyl)sulfonyl)piperidine-3-carboxamide] gave an IC50 (BxPc3 cells) of 3.72 µM and an IC50 (MIA PaCa-2 cells) of 0.94 µM.
